Legend:
Assay type in all cases: in vivo, human
[1] = system: patients with glaucoma or ocular hypertension; assay: Phase 1/2 study Part 2: double-masked, randomized, active controlled, ocular hypotensive efficacy (IOP), twice daily; conditions: for mean change from baseline in IOP, primary endpoint: Part 2, Day 14, Hour 2, study eye; for IOP-lowering effect, mean change from baseline in the study eye at all postbaseline timepoints: Part 2, both Compound 1 groups (0.15%, 0.4%) p≤0.007, Timolol p≤0.004
[2] = system: patients with glaucoma or ocular hypertension; assay: Phase 1/2 study Part 2: low-luminance ETDRS visual acuity
From the text: Low-luminance visual acuity refers to visual acuity determined using the standard Early Treatment Diabetic Retinopathy Study (ETDRS) chart with a 2.0 log unit neutral density filter placed in front of the eye.
(§1) Part 1 was an open-label dose escalation study. The purpose of Part 1 of this study (WB007-001), was to assess the safety, tolerability, and IOP-lowering effects of a single drop of an ophthalmic solution containing [3-[(1S)-1-(1H-imidazole-5-yl)ethyl]-2-methylphenyl]methyl-2,2-dimethylpropanoate (Compound 1) with concentrations ranging from 0.05% to 0.4%. […] In addition to assessing the efficacy of Compound 1 on lowering IOP, the study also assessed the effects of the drug on visual function.
Additional analyses examining the effect of Compound 1 on visual function included low-luminance visual acuity and visual fields.

[3] = system: patients with glaucoma or ocular hypertension; assay: Phase 1/2 study Part 2: pupil size
From the text: as §1
The effect of Compound 1 on pupil size was assessed at the baseline visit and on Day 14.

[4] = system: patients with glaucoma or ocular hypertension; assay: Phase 1/2 study Part 2: visual field mean deviation; conditions: for visual field change in mean deviation: non-study eye, Day 14; for visual field mean deviation change from Baseline at Day 14: study eyes, positive change = improvement; for Improvement ≥1 dB in Study Eye, number of patients / Improvement ≥1 dB in Study Eye, percentage of patients / Improvement ≥1 dB in Treated Non-Study Eye, number of patients / Improvement ≥1 dB in Treated Non-Study Eye, percentage of patients: visual field
[5] = system: patients with glaucoma or ocular hypertension; assay: Phase 1/2 study: safety, tolerability and comfort; conditions: both doses (0.15%, 0.4%)
From the text: as §1

## CC(C)(C)NC[C@H](O)COc1nsnc1N1CCOCC1 [Timolol, timolol, reference compound]
[1]; 0.5% timolol ophthalmic solution
  mean change from baseline in IOP, primary endpoint: −6.0±3.0 mm Hg
[1]
  IOP-lowering effect, mean change from baseline in the study eye at all postbaseline timepoints: statistically significant IOP-lowering effects
[2]; non-study eye, timolol 0.5%
  percentage of subjects achieving an increase in ETDRS visual acuity of 15 or more letters under low luminance on at least one study visit: 8.3%
[2]; study eye, timolol 0.5%
  percentage of subjects achieving an increase in ETDRS visual acuity of 15 or more letters under low luminance on at least one study visit: 0%
[3]; study eyes, Timolol 0.5%
  mean change in pupil size from Baseline to Day 14 at Hour 0: −0.1 mm
[3]; treated non-study eyes, Timolol 0.5%
  mean change in pupil size from Baseline to Day 14 at Hour 0: −0.1 mm
[4]; Timolol 0.5%
  visual field change in mean deviation: −2.0±3.4 dB
  visual field mean deviation change from Baseline at Day 14: −1.2±2.3 dB
  Improvement ≥1 dB in Study Eye, number of patients: 2 patients
  Improvement ≥1 dB in Study Eye, percentage of patients: 17%
  Improvement ≥1 dB in Treated Non-Study Eye, number of patients: 0 patients (0%)
  Improvement ≥1 dB in Treated Non-Study Eye, percentage of patients: 0 patients (0%)

## Cc1c(COC(=O)C(C)(C)C)cccc1[C@H](C)c1c[nH]cn1 [Compound 1, [3-[(1S)-1-(1H-imidazole-5-yl)ethyl]-2-methylphenyl]methyl-2,2-dimethylpropanoate]
[1]; 0.15% twice daily
  mean change from baseline in IOP, primary endpoint: −4.9±1.8 mm Hg
[1]; 0.4% twice daily
  mean change from baseline in IOP, primary endpoint: −5.1±2.5 mm Hg
[1]
  IOP-lowering effect, mean change from baseline in the study eye at all postbaseline timepoints: statistically significant IOP-lowering effects
[2]; non-study eye, 0.15%
  percentage of subjects achieving an increase in ETDRS visual acuity of 15 or more letters under low luminance on at least one study visit: 17.4%
[2]; non-study eye, 0.4%
  percentage of subjects achieving an increase in ETDRS visual acuity of 15 or more letters under low luminance on at least one study visit: 25.0%
[2]; patients receiving 0.15% or 0.4%
  effect on low luminance visual acuity: Dose related improvements in low luminance visual acuity
[2]; study eye, 0.15%
  percentage of subjects achieving an increase in ETDRS visual acuity of 15 or more letters under low luminance on at least one study visit: 8.7%
[2]; study eye, 0.4%
  percentage of subjects achieving an increase in ETDRS visual acuity of 15 or more letters under low luminance on at least one study visit: 16.7%
[5]
  safety and tolerability: safe and well-tolerated
[3]; either dose (0.15%, 0.4%)
  effect on pupil size: no meaningful decrease in pupil size
[3]; study eyes, 0.15%
  mean change in pupil size from Baseline to Day 14 at Hour 0: 0.0 mm
[3]; study eyes, 0.4%
  mean change in pupil size from Baseline to Day 14 at Hour 0: −0.1 mm
[3]; treated non-study eyes, 0.15%
  mean change in pupil size from Baseline to Day 14 at Hour 0: 0.0 mm
[3]; treated non-study eyes, 0.4%
  mean change in pupil size from Baseline to Day 14 at Hour 0: −0.1 mm
[4]; 0.15%
  visual field change in mean deviation: 0.4±1.5 dB
  visual field mean deviation change from Baseline at Day 14: 0.2±1.2 dB
  Improvement ≥1 dB in Study Eye, number of patients: 9 patients
  Improvement ≥1 dB in Study Eye, percentage of patients: 39%
  Improvement ≥1 dB in Treated Non-Study Eye, number of patients: 7 patients
  Improvement ≥1 dB in Treated Non-Study Eye, percentage of patients: 30%
[4]; 0.4%
  visual field change in mean deviation: −0.2±1.4 dB
  visual field mean deviation change from Baseline at Day 14: −0.5±2.3 dB
  Improvement ≥1 dB in Study Eye, number of patients: 6 patients
  Improvement ≥1 dB in Study Eye, percentage of patients: 25%
  Improvement ≥1 dB in Treated Non-Study Eye, number of patients: 6 patients
  Improvement ≥1 dB in Treated Non-Study Eye, percentage of patients: 25%
